Laboratory results taken from ChEMBL document CHEMBL3865786, “Scaffold-hopping of bioactive flavonoids: Discovery of aryl-pyridopyrimidinones as potent anticancer agents that inhibit catalytic role of topoisomerase IIα” (Eur J Med Chem, 2016).
Active and inactive are the calls of the source. The rule behind the calls is not given here.

Assays:
[1] = Cytotoxicity against African green monkey Vero cells assessed as reduction in cell viability after 48 hrs by MTT assay; assay type: toxicity, cell-based; conditions: chlorocebus sabaeus; for CC50 at 48 h: Vero cells, read-out: LC50; for Activity: vero, 48 h
[2] = tested on: HEK293; test: Potency index, ratio of etoposide LC50 to compound LC50 for anticlonogenic activity in HEK293 cells; assay type: functional, Homo sapiens
[3] = Cytotoxicity against human A549 cells assessed as reduction in cell viability after 48 hrs by MTT assay; assay type: functional, cell-based; conditions: A549, 48 h
[4] = tested on: HEK293; test: (§1) Anticlonogenic activity against HEK293 cells assessed as inhibition of colony formation incubated for 48 hrs measured after 6 days by crystal violet staining based assay; assay type: functional; conditions: Homo sapiens
[5] = as §1; assay type: functional; conditions: Homo sapiens, read-out: LC50 (the source's name)
[6] = Cytotoxicity against human HeLa cells assessed as reduction in cell viability after 48 hrs by MTT assay; assay type: functional, cell-based
[7] = Cytotoxicity against human H357 cells assessed as reduction in cell viability after 48 hrs by MTT assay; assay type: functional, cell-based; conditions: H357, 48 h
[8] = tested on: HEK293; test: (§2) Cytotoxicity against HEK293 cells assessed as reduction in cell viability after 48 hrs by MTT assay; assay type: functional; conditions: Homo sapiens
[9] = as §2; assay type: functional; conditions: Homo sapiens, HEK293, 48 h; read-out: LC50 (the source's name)
[10] = Cytotoxicity against human HCT116 cells assessed as reduction in cell viability after 48 hrs by MTT assay; assay type: functional, cell-based; conditions: HCT-116, 48 h
[11] = Cytotoxicity against human MCF7 cells assessed as reduction in cell viability after 48 hrs by MTT assay; assay type: functional, cell-based; conditions: MCF7, 48 h
[12] = target: DNA topoisomerase 2-alpha (Homo sapiens) (UniProt P11388); test: Inhibition of human DNA topoisomerase 2alpha-mediated decatenation of kinetoplast DNA at 100 uM after 30 mins by agarose gel electrophoresis
DNA topoisomerase 2-alpha (Homo sapiens), sequence (P11388 whole entry): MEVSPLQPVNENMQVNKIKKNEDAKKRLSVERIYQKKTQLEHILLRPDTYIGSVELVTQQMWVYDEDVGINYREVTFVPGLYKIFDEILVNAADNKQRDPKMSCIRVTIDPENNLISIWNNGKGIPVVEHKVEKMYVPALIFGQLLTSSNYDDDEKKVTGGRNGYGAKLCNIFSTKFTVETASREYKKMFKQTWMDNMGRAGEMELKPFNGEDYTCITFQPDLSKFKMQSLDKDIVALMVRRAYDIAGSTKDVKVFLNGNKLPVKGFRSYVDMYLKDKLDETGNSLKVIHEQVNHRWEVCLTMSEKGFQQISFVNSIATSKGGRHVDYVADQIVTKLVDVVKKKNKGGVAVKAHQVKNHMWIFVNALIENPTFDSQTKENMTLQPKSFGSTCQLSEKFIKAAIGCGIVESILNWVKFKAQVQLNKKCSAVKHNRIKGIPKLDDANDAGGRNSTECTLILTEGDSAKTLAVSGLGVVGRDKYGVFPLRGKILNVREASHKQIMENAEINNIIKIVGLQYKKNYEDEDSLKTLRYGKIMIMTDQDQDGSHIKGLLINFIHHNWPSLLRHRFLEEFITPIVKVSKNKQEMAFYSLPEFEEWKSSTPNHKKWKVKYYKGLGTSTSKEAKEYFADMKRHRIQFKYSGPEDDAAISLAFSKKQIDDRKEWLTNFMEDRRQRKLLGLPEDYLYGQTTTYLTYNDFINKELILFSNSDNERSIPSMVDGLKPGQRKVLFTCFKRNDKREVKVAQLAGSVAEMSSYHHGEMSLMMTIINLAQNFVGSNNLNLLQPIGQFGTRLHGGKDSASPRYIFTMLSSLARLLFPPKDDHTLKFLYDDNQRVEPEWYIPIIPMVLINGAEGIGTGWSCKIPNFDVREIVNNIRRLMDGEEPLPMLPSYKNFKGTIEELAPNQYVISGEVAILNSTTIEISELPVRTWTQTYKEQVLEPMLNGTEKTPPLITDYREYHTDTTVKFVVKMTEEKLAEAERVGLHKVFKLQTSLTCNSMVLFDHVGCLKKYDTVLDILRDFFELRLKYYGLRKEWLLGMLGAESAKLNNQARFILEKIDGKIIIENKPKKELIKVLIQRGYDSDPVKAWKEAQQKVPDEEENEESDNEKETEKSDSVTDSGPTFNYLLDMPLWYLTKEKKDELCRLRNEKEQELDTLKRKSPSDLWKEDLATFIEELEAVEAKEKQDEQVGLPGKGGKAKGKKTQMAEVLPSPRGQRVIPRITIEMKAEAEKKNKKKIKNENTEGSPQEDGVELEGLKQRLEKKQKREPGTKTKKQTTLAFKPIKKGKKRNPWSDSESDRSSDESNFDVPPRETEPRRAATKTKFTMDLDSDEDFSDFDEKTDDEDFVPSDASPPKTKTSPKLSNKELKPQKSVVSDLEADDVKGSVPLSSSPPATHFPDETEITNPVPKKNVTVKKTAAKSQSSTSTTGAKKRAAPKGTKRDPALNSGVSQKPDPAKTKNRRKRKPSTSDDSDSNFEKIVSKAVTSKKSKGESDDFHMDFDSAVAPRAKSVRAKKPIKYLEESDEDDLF

[13] = tested on: HEK293; test: Induction of apoptosis in HEK293 cells assessed as shrinkage after 48 hrs by DAPI staining based fluorescence microscopy; assay type: functional, cell-based; conditions: Homo sapiens
[14] = tested on: HEK293; test: Induction of apoptosis in HEK293 cells assessed as normal cells at 1 uM after 48 hrs by Annexin-V/FITC/PI dual staining based flow cytometry (reference value: 98.2 +/- 1.7%); assay type: functional, Homo sapiens
[15] = tested on: HEK293; test: Induction of apoptosis in HEK293 cells assessed as normal cells at 2.4 uM after 48 hrs by Annexin-V/FITC/PI dual staining based flow cytometry (reference value: 98.2 +/- 1.7%); assay type: functional, Homo sapiens
[16] = Binding affinity to DNA (unknown origin) assessed as hypochromism after 1 hr by UV-Vis absorption spectrophotometric analysis
[17] = tested on: HEK293; test: Induction of apoptosis in HEK293 cells assessed as normal cells at 5 uM after 48 hrs by Annexin-V/FITC/PI dual staining based flow cytometry (reference value: 98.2 +/- 1.7%); assay type: functional, Homo sapiens
[18] = tested on: HEK293; test: Induction of apoptosis in HEK293 cells assessed as bubble shaped nuclei after 48 hrs by DAPI staining based fluorescence microscopy; assay type: functional, cell-based; conditions: Homo sapiens
[19] = tested on: HEK293; test: Induction of apoptosis in HEK293 cells assessed as late apoptotic cells at 5 uM after 48 hrs by Annexin-V/FITC/PI dual staining based flow cytometry (reference value: 0.82 +/- 0.5%); assay type: functional, Homo sapiens
[20] = tested on: HEK293; test: Induction of apoptosis in HEK293 cells assessed as early apoptotic cells at 1 uM after 48 hrs by Annexin-V/FITC/PI dual staining based flow cytometry (reference value: 0.19 +/- 1.4%); assay type: functional, Homo sapiens
[21] = tested on: HEK293; test: Induction of apoptosis in HEK293 cells assessed as late apoptotic cells at 2.4 uM after 48 hrs by Annexin-V/FITC/PI dual staining based flow cytometry (reference value: 0.82 +/- 0.5%); assay type: functional, Homo sapiens
[22] = tested on: HEK293; test: Induction of apoptosis in HEK293 cells assessed as early apoptotic cells at 2.4 uM after 48 hrs by Annexin-V/FITC/PI dual staining based flow cytometry (reference value: 0.19 +/- 1.4%); assay type: functional, Homo sapiens
[23] = tested on: HEK293; test: Induction of apoptosis in HEK293 cells assessed as apoptotic cells at 5 uM after 48 hrs by Annexin-V/FITC/PI dual staining based flow cytometry (reference value: 0.07 +/- 0.2%); assay type: functional, Homo sapiens
[24] = tested on: HEK293; test: Induction of apoptosis in HEK293 cells assessed as late apoptotic cells at 1 uM after 48 hrs by Annexin-V/FITC/PI dual staining based flow cytometry (reference value: 0.82 +/- 0.5%); assay type: functional, Homo sapiens
[25] = tested on: HEK293; test: Induction of apoptosis in HEK293 cells after 48 hrs by Annexin V-FITC/propidium iodide staining based flow cytometry; assay type: functional, cell-based; conditions: Homo sapiens
[26] = tested on: HEK293; test: Induction of apoptosis in HEK293 cells assessed as deformation after 48 hrs by DAPI staining based fluorescence microscopy; assay type: functional, cell-based; conditions: Homo sapiens
[27] = tested on: HEK293; test: Induction of apoptosis in HEK293 cells assessed as apoptotic cells at 2.4 uM after 48 hrs by Annexin-V/FITC/PI dual staining based flow cytometry (reference value: 0.07 +/- 0.2%); assay type: functional, Homo sapiens
[28] = tested on: HEK293; test: Induction of apoptosis in HEK293 cells assessed as early apoptotic cells at 5 uM after 48 hrs by Annexin-V/FITC/PI dual staining based flow cytometry (reference value: 0.19 +/- 1.4%); assay type: functional, Homo sapiens
[29] = tested on: HEK293; test: Induction of apoptosis in HEK293 cells assessed as apoptotic cells at 1 uM after 48 hrs by Annexin-V/FITC/PI dual staining based flow cytometry (reference value: 0.07 +/- 0.2%); assay type: functional, Homo sapiens

Row | Structure (SMILES) | CC50 at 48 h [1] | Activity [1] | RatioLC50 [2] | IC50 [3] | inhibition [4] | CC50 [5] | IC50 [6] | IC50 [7] | Activity [8] | CC50 [9] | IC50 [10] | IC50 [11] | Topoisomerase 2-alpha inhibition (active/inactive) [12] | also measured
1 | O=c1c(-c2ccccc2)cnc2c(OCc3ccccc3)cccn12 | 60 µM | Dose-dependent effect | 5 - 10 | 2000 nM | Dose-dependent effect | 3800 nM | 1500 nM | 3000 nM | Dose-dependent effect | 3 µM | 3000 nM | 2000 nM | Active | 
2 | Cc1ccc(-c2coc3ccccc3c2=O)cc1 | 48 µM |  |  |  |  |  |  |  |  | 8 µM |  |  | Active | 
3 | O=c1c(-c2cccc3ccccc23)coc2ccccc12 | 42 µM |  |  |  |  |  |  |  |  | 12 µM |  |  | Active | 
4 | O=c1c(-c2ccc3c(c2)OCO3)cnc2ccccn12 | 48 µM |  |  |  |  |  |  |  |  | 15 µM |  |  | Active | 
5 | COc1cc([C@@H]2c3cc4c(cc3[C@@H](O[C@@H]3O[C@@H]5CO[C@@H](C)O[C@H]5[C@H](O)[C@H]3O)[C@H]3COC(=O)[C@H]23)OCO4)cc(OC)c1O [ETOPOSIDE] | 55 µM |  |  |  |  | 20000 nM |  |  |  | 22 µM |  |  | Active | 
6 | COc1ccc(-c2cnc3ccccn3c2=O)cc1 | 38 µM |  |  |  |  |  |  |  |  | 19 µM |  |  | Active | 
7 | COc1ccc(-c2cc(=O)n3ccccc3n2)cc1 | 60 µM |  |  |  |  |  |  |  |  | 8 µM |  |  | Active | 
8 | O=c1cc(-c2ccc(Cl)cc2)nc2ccccn12 | 47.5 µM | Dose-dependent effect | 5 - 10 | 2100 nM | Dose-dependent effect | 2000 nM | 2000 nM | 2300 nM | Dose-dependent effect | 2.4 µM | 2500 nM | 1800 nM | Active | Activity [13]: Dose-dependent effect; Activity [14]: 88.48%; Activity [15]: 87%; Activity [16]: Active; Activity [17]: 77.6%; Activity [18]: Dose-dependent effect; Activity [19]: 18.56%; Activity [20]: 0.02%; Activity [21]: 12.8%; Activity [22]: 0%; Activity [23]: 3.41%; Activity [24]: 10.83%; Activity [25]: Dose-dependent effect; Activity [26]: Dose-dependent effect; Activity [27]: 0.2%; Activity [28]: 0.42%; Activity [29]: 0.66%
9 | O=Cc1ccc(-c2cc(=O)n3ccccc3n2)cc1 | 48 µM | Dose-dependent effect | 5 - 10 | 2400 nM | Dose-dependent effect | 2500 nM | 3000 nM | 2500 nM | Dose-dependent effect | 3 µM | 3500 nM | 2500 nM | Active | Activity [16]: Active
10 | Cc1ccc(-c2cnc3ccccn3c2=O)cc1 | 44 µM | Dose-dependent effect | 5 - 10 | 2500 nM | Dose-dependent effect | 2500 nM | 3000 nM | 2800 nM | Dose-dependent effect | 3.5 µM | 2500 nM | 4000 nM | Active | 
11 | COc1ccc(-c2cc(=O)c3ccccc3o2)cc1 [4'-METHOXYFLAVONE] | 45 µM |  |  |  |  |  |  |  |  | 8.5 µM |  |  | Active | 
12 | O=c1cc(-c2ccc3c(c2)OCO3)nc2ccccn12 | 52 µM |  |  |  |  |  |  |  |  | 15.5 µM |  |  | Active | 
13 | O=c1c(-c2cccc3ccccc23)cnc2ccccn12 | 60 µM |  |  |  |  |  |  |  |  | 7 µM |  |  | Active | 
